Measured values: paper PMC8868332, “Creating Robust Antimicrobial Materials with Sticky Tyrocidines” (Antibiotics, 2022)
Where no end group is shown, it is not given here.

Legend:
[1] = system: Listeria monocytogenes B73; test: Resazurin assay of surface activity of peptide-treated materials; type: cell-based; conditions: cellulose filters, 5.0 µg compound offered per 0.28 cm^2; normalised to untreated cellulose; Figure 6A, three biological and four technical repeats
Description: (§1) An aqueous solution of antimicrobial compound (100 µL of 50.0 µg/mL; 5% v/v acetonitrile) was incubated for two hours with the base material punch (0.28 cm^2), ensuring that 5.0 µg of compound was available for binding. Following the incubation, the antimicrobial compound solution was removed, and the samples washed twice with 100 µL sterile analytical quality water and dried in a 40 °C oven for 2 h. Treatment conditions were chosen to imitate large scale treatment/creation of packaging materials, such as aqueous solutions, followed by a drying step.
The antimicrobial activity of the Trc-containing materials and films were determined by a developed resazurin assay. […] The conversion of the resazurin was measured at Ex530 and Em590 after 30 min for L. monocytogenes and 90 min for E. coli using the Tecan Spark 10 M Multimode Microplate Reader and controlled by the Spark Control^TM software, both provided by Tecan Group Ltd. (Mennedorf, Switzerland). […] The activity of the material was determined in terms of percentage inhibition by using the acquired fluorescence readings (F), with the following Equation: (1) %Inhibition of Target organism=100−(F of well−F of average blank)×100/(F of growth control−F of average blank).

Escherichia coli K12 = test: Resazurin assay of surface activity of peptide-treated cellulose; type: cell-based; conditions: cellulose filters, 5.0 µg compound offered per 0.28 cm^2; normalised to untreated cellulose; Figure 6B, three biological and four technical repeats
Description: as §1
The antimicrobial activity of the Trc-containing materials and films were determined by a developed resazurin assay. Listeria monocytogenes B73 was streaked out from freezer stocks onto BHI agar plates (Brain Heart Infusion; 1.5% m/v agar) and incubated for 48 h at 37 °C until colonies were viable. Escherichia coli K12 was streaked out from freezer stocks onto LB plates (1% m/v NaCl, 1% m/v tryptone, 0.5% m/v yeast extract, 1.5% m/v agar in water) and incubated at 37 °C for 24 h. Starter cultures were prepared, by inoculating 1 mL medium with 3–5 colonies and growing the cells overnight at 37 °C at an angle, shaking at 150 RPM. […] This culture was then pipetted (10 µL) onto the treated and untreated materials in a 96-well assay plate and incubated for one hour at 37 °C. Following the incubation, 90 µL PBS (phosphate buffered saline; 0.8% m/v NaCl, 0.04% m/v KCl, 0.144% m/v Na2HPO4, 0.02% m/v KH2PO4; pH 7.4), and 10 µL resazurin dye (0.3 mg/mL in PBS) was added, followed by a further incubation at 37 °C. The conversion of the resazurin was measured at Ex530 and Em590 after 30 min for L. monocytogenes and 90 min for E. coli using the Tecan Spark 10 M Multimode Microplate Reader and controlled by the Spark Control^TM software, both provided by Tecan Group Ltd. (Mennedorf, Switzerland). […] The activity of the material was determined in terms of percentage inhibition by using the acquired fluorescence readings (F), with the following Equation: (1) %Inhibition of Target organism=100−(F of well−F of average blank)×100/(F of growth control−F of average blank).

L. monocytogenes = conditions: cited from earlier work
Description: Table 2 Summary of the compounds used to compare with the Trc in creating robust non-covalent antimicrobial materials. | column: Minimum Inhibitory Concentration (μg/mL) / L. monocytogenes

E. coli = conditions: cited from earlier work
Description: Table 2 Summary of the compounds used to compare with the Trc in creating robust non-covalent antimicrobial materials. | column: Minimum Inhibitory Concentration (μg/mL) / E. coli

[2] = general character summarised in Table 2; no reference given; cited from earlier work
Description: Table 2 Summary of the compounds used to compare with the Trc in creating robust non-covalent antimicrobial materials. | column: Character

| Compound | % Inhibition of L. monocytogenes by peptide-treated cellulose [1] [%] | % Inhibition of E. coli by peptide-treated cellulose (Escherichia coli K12) | Minimum Inhibitory Concentration L. monocytogenes (L. monocytogenes) | Minimum Inhibitory Concentration E. coli (E. coli) | Haemolytic character (Character) [2] | Solubility (Character) [2] |
| --- | --- | --- | --- | --- | --- | --- |
| gramicidin S [GS] | 100 | full inhibition | 11 ± 0.20 [34] μg/mL | 3–12.5 [84] μg/mL |  |  |
| CNC(C)C1CCC(N)C(OC2C(N)CC(N)C(OC3OCC(C)(O)C(NC)C3O)C2O)O1 (stereo not drawn) [Gentamicin] |  |  | 0.5–4.0 [91, 92] μg/mL |  |  |  |
| Magainin 2 |  | “negative” inhibition |  | 10–50 [85] μg/mL |  |  |
| Leucocin A (KYYGNGVHCTKSGCSVNWGEAFSAGVHRLANGGNGFW; ends and bridges not checked; cysteine pairing not given here; UniProt P34034 25-61, looked up) [37-mer cationic, amphipathic disulphide-bonded bacteriocin from Leuconostoc gelidum UAL187] |  | low levels of inhibition | 0.98–1.98 [87] μg/mL |  | non-haemolytic | water-soluble |
| PGLa |  | “negative” inhibition |  | 10–50 [86] μg/mL |  |  |
| Melittin |  | low levels of inhibition | 0.315 ± 0.008 [88] μg/mL | 15–42.5 [89, 90] μg/mL | haemolytic | water-soluble |
